What was measured:
Format in all cases: cell-based
CCR5 = CCR5 staining with 6-TG selection in mPB CD34+ cells; details: 100 nM of 6TG day 4 to 14, flow at day 14; without 6TG 44.9%
Experimental: Assay protocols and results for CCR5 staining with 6-TG selection in sh734-KI mPB CD34+ cells (i.e. Mobilized CD34+ cells cultured with TPO/SCF/FLT3/IL3 and Knock-out of CCR5 and knock-in of sh734 in CD34+ cells)
(§1) Nanocapsules were formulated to contain CRISPR/Cas9/gRNAR targeting CCR5/mi-sh734 expression cassette HDR template CRISPR machinery complex (see methods). Cd34+ cells were thawed and pre-stimulated in x-vivo 10 with 100 ng/mL of TPO/SCF/FLT4/IL3 for overnight. Then 500 ng of Cas9-CCR5-gRNA-3G-mi-sh734 nanocapsules were added into 5×10^4 cells per well and 100 nM of 6TG was added into culture media from day 4 to 14. The flow analysis was carried out at day 14.
as §1, with “6-TG selection was examined using VCN/InDel data. mPB CD34+ were transfected/transduced as indicated in FIG. 8A Nanocapsules” for “Nanocapsules”, “prestimulated” for “pre-stimulated”, “X-vivo” for “x-vivo”

CEM cells = assay: Negative selection with MTX or MPA on transduced or transfected CEM cells; details: for GFP-population of transduced cells (HPRT knockdown): FIG. 10A, CEM experiment; for HPRT knockout population of CEM cells: FIG. 10B
Experimental: FIGS. 10A and 10B illustrate the effect of negative selection with 300 nM of MTX, 1 uM and 10 uM of MPA on CEM cells transduced with sh7-GFP lentiviral vector or transfected with RNP targeting HPRT1 nanocapsules.
(§2) Transduced or transfected CEM cells (such as those from Example 6) were cultured with or without MTX from day 0 to day 14. The medium was refreshed every 3 to 4 days. GFP was analyzed on flow machine and InDel % was analyzed by T7E1 assay.

K562 cells = assay: Negative selection with MTX on transduced or transfected K562 cells; details: 0.3 uM of MTX
Experimental: FIGS. 9A and 9B illustrate the effect of negative selection with 300 nM of MTX on K562 cells transduced with sh7-GFP lentiviral vector or transfected with RNP targeting HPRT1 nanocapsules.
as §2, with “K562” for “CEM”, “5)” for “6)”, “assay. […] FIG. 9B illustrated that the transfected K562 cells were eliminated under treatment with 0.3 uM of MTX at a faster pace as compared with the HPRT-KD population.” for “assay.”

## Nc1nc2nc[nH]c2c(=S)[nH]1 [6TG, 6-thioguanine]
CCR5
  CCR5+ of CD34+ cells with 6TG treatment (no nanocapsule): 43.4%

## COc1c(C)c2c(c(O)c1C/C=C(\C)CCC(=O)O)C(=O)OC2 [MPA, mycophenolic acid]
CEM cells; 1 uM of MPA
  GFP-population of transduced cells (HPRT knockdown): decreased
  HPRT knockout population of CEM cells: eliminated at a faster pace
CEM cells; 10 uM of MPA
  GFP-population of transduced cells (HPRT knockdown): decreased
  HPRT knockout population of CEM cells: eliminated at a faster pace

## CN(Cc1cnc2nc(N)nc(N)c2n1)c1ccc(C(=O)N[C@@H](CCC(=O)O)C(=O)O)cc1 [MTX, methotrexate]
K562 cells; FIG. 9A, day 0 to day 14
  GFP-population of transduced K562 cells (HPRT knockdown): decreased
K562 cells; FIG. 9B, compared with the HPRT-KD population
  transfected (HPRT knockout) K562 cells: eliminated
CEM cells; 0.3 uM of MTX
  GFP-population of transduced cells (HPRT knockdown): decreased
  HPRT knockout population of CEM cells: eliminated at a faster pace

From patent publication US20210322331A1, “NANOCAPSULES FOR THE DELIVERY OF CELL MODULATING AGENTS” (CSL BEHRING LLC, priority 2018, published 2021)
